Reference: US20070015823A1, “Ambruticin VS compounds” (priority 2004, published 2007)
Converted amounts (≈) assume the structure as drawn. Read-outs that look alike come from different tables or passages of the source.

Key:
Candida albicans = settings: Candida albicans
A. flavus ATCC 204304 = test: Broth microdilution antifungal susceptibility, NCCLS M38-A; type: cell-based, Aspergillus flavus; settings: minimal concentration inhibiting >95% growth; average of at least two assays (except I-l and I-x)
A. fumigatus ATCC 204305 = test: as above; type: cell-based, Aspergillus fumigatus; settings: minimal concentration inhibiting >95% growth; average of at least two assays (except I-l and I-x)
Cryptococcus neoformans = test: as above; settings: 50% growth inhibition, range = minimum and maximum of multiple assays; for MIC C. neoformans 97-14: strain 97-14; for MIC C. neoformans 11239: strain 11239; for MIC C. neoformans 11240: strain 11240
Blastomyces dermatitidis = test: as above; type: cell-based
Histoplasma capsulatum = type: cell-based

`CC[C@H](C)C[C@H](C)CCCCCCCCC(=O)N[C@H]1C[C@@H](O)[C@@H](NCCN)NC(=O)[C@@H]2[C@@H](O)CCN2C(=O)[C@H]([C@H](O)CCN)NC(=O)[C@H]([C@H](O)[C@@H](O)c2ccc(O)cc2)NC(=O)[C@@H]2C[C@@H](O)CN2C(=O)[C@H]([C@@H](C)O)NC1=O` [Caspofungin, reference compound] showed an MIC (Candida albicans; read-out: MIC C. albicans 24433) of 2 µg/mL (≈ 1.83 µM) and an MIC (Candida albicans; read-out: MIC C. albicans 90028) of 2 µg/mL (≈ 1.83 µM).

For `CC[C@H]1O[C@@H](/C(C)=C/[C@H](C)/C=C/[C@H]2[C@@H](C)[C@@H]2/C=C/[C@@H]2O[C@H](CCO)C[C@H](NC)[C@H]2O)CC=C1C` [I-ee, (5S,6R)-5-(methylamino)polyangi-1,6-diol], the “MIC0 A. flavus ATCC 204304” value (A. flavus ATCC 204304) was 3 µg/mL, the “MIC0 A. fumigatus ATCC 204305” value (A. fumigatus ATCC 204305) was 9.5 µg/mL and the “MIC C. neoformans 97-14” value (Cryptococcus neoformans) was 2 µg/mL (≈ 4.22 µM). For the same compound, the “MIC C. neoformans 11239” value (Cryptococcus neoformans) was 2 µg/mL (≈ 4.22 µM) and the “MIC C. neoformans 11240” value (Cryptococcus neoformans) was 2 µg/mL (≈ 4.22 µM).

With `CC[C@H]1O[C@@H](/C(C)=C/[C@H](C)/C=C/[C@H]2[C@@H](C)[C@@H]2/C=C/[C@@H]2O[C@H](CC(=O)O)C[C@H](NC(C)C)[C@H]2O)CC=C1C` [I-kk, (5S,6R)-5-(isopropylamino)-6-hydroxypolyangioic acid] the “MIC0 A. flavus ATCC 204304” value (A. flavus ATCC 204304) was 1.1 µg/mL, the “MIC0 A. fumigatus ATCC 204305” value (A. fumigatus ATCC 204305) was 1 µg/mL and the “MIC B. dermatitidis Gu” value (Blastomyces dermatitidis) was 12.5 µg/mL (≈ 24.2 µM). For the same compound, the “MIC B. dermatitidis Kr” value (Blastomyces dermatitidis) was >12.5 µg/mL, the “MIC B. dermatitidis V” value (Blastomyces dermatitidis) was >12.5 µg/mL and the “MIC H. capsulatum G217B” value (Histoplasma capsulatum) was <0.19 µg/mL. The “MIC H. capsulatum GS20” value (Histoplasma capsulatum) was <0.19 µg/mL, the “MIC C. neoformans 97-14” value (Cryptococcus neoformans) was 0.25 µg/mL (≈ 0.485 µM) and the “MIC C. neoformans 11239” value (Cryptococcus neoformans) was 0.125 µg/mL (≈ 0.242 µM). For the same compound, the “MIC C. neoformans 11240” value (Cryptococcus neoformans) was 0.0625 µg/mL (≈ 0.121 µM).

In the case of `CC[C@H]1O[C@@H](/C(C)=C/[C@H](C)/C=C/[C@H]2[C@@H](C)[C@@H]2/C=C/[C@@H]2O[C@H](CC(=O)O)C[C@H](N(C)C3CCCC3)[C@H]2O)CC=C1C` [I-c, (5S,6R)-5-(N-cyclopentyl-methylamino)-6-hydroxypolyangioic acid], the “MIC0 A. flavus ATCC 204304” value (A. flavus ATCC 204304) is reported as 2.0 µg/mL, the “MIC0 A. fumigatus ATCC 204305” value (A. fumigatus ATCC 204305) is reported as 2.67 µg/mL and the “MIC C. neoformans 97-14” value (Cryptococcus neoformans) is reported as 1 µg/mL (≈ 1.8 µM). For the same compound, the “MIC C. neoformans 11239” value (Cryptococcus neoformans) was 2 µg/mL (≈ 3.6 µM) and the “MIC C. neoformans 11240” value (Cryptococcus neoformans) was 2 µg/mL (≈ 3.6 µM).

In the case of `CC[C@H]1O[C@@H](/C(C)=C/[C@H](C)/C=C/[C@H]2[C@@H](C)[C@@H]2/C=C/[C@@H]2O[C@H](CCO)C[C@H](N(C)C(C)C)[C@H]2O)CC=C1C` [I-oo, (5S,6R)-5-(N-isoproyl-methylamino)polyangi-1,6-diol], the “MIC0 A. flavus ATCC 204304” value (A. flavus ATCC 204304) is reported as 2 µg/mL, the “MIC0 A. fumigatus ATCC 204305” value (A. fumigatus ATCC 204305) is reported as 32 µg/mL and the “MIC B. dermatitidis Gu” value (Blastomyces dermatitidis) is reported as 0.39 µg/mL (≈ 0.756 µM). For the same compound, the “MIC B. dermatitidis Kr” value (Blastomyces dermatitidis) was >12.5 µg/mL, the “MIC B. dermatitidis V” value (Blastomyces dermatitidis) was >12.5 µg/mL and the “MIC H. capsulatum G217B” value (Histoplasma capsulatum) was <0.19 µg/mL. The “MIC H. capsulatum GS20” value (Histoplasma capsulatum) was <0.19 µg/mL.

`CC[C@H]1O[C@@H](/C(C)=C/[C@H](C)/C=C/[C@H]2[C@@H](C)[C@@H]2/C=C/[C@@H]2O[C@H](CC(=O)O)C[C@H](N(C)C(=O)OC)[C@H]2O)CC=C1C` [I-o] was tested, and the “MIC0 A. flavus ATCC 204304” value (A. flavus ATCC 204304) was 32 µg/mL and the “MIC0 A. fumigatus ATCC 204305” value (A. fumigatus ATCC 204305) was 16 µg/mL.

In the case of `CC[C@H]1O[C@@H](/C(C)=C/[C@H](C)/C=C/[C@H]2[C@@H](C)[C@@H]2/C=C/[C@@H]2O[C@H](CC(=O)O)C[C@H](NC(=O)C(F)(F)F)[C@H]2O)CC=C1C` [I-fff, (5S,6R)-5-trifluroacetamido-6-hydroxypolyangioic acid], the “MIC0 A. flavus ATCC 204304” value (A. flavus ATCC 204304) is reported as 2 µg/mL and the “MIC0 A. fumigatus ATCC 204305” value (A. fumigatus ATCC 204305) is reported as 3 µg/mL.

With `CC[C@H]1O[C@@H](/C(C)=C/[C@H](C)/C=C/[C@H]2[C@@H](C)[C@@H]2/C=C/[C@@H]2O[C@H](CC(=O)O)C[C@H](N)[C@H]2O)CC=C1C` [Ambruticin VS-5, (5S,6R)-5-amino-6-hydroxypolyangioic acid, reference compound] the “MIC0 A. flavus ATCC 204304” value (A. flavus ATCC 204304) was 1.09 µg/mL and the “MIC0 A. fumigatus ATCC 204305” value (A. fumigatus ATCC 204305) was 1.64 µg/mL.

`CC[C@H]1O[C@@H](/C(C)=C/[C@H](C)/C=C/[C@H]2[C@@H](C)[C@@H]2/C=C/[C@@H]2O[C@H](CC(=O)O)CC(=O)[C@H]2O)CC=C1C` [5-keto ambruticin S, (6R)-5-Oxo-6-hydroxypolyangioic acid, reference compound] was tested, and the “MIC0 A. flavus ATCC 204304” value (A. flavus ATCC 204304) was 1.0 µg/mL, the “MIC0 A. fumigatus ATCC 204305” value (A. fumigatus ATCC 204305) was 2.0 µg/mL and the “MIC C. neoformans 97-14” value (Cryptococcus neoformans) was 0.5 µg/mL (≈ 1.06 µM). The “MIC C. neoformans 11239” value (Cryptococcus neoformans) was 2 µg/mL (≈ 4.23 µM) and the “MIC C. neoformans 11240” value (Cryptococcus neoformans) was 2 µg/mL (≈ 4.23 µM).

With `CC[C@H]1O[C@@H](/C(C)=C/[C@H](C)/C=C/[C@H]2[C@@H](C)[C@@H]2/C=C/[C@@H]2O[C@H](CCO)C[C@H](NCC(F)(F)F)[C@H]2O)CC=C1C` [I-iii, (5S,6R)-5-(2,2,2-trifluroethyl)aminopolyangi-1,6-diol] the “MIC0 A. flavus ATCC 204304” value (A. flavus ATCC 204304) was 16 µg/mL and the “MIC0 A. fumigatus ATCC 204305” value (A. fumigatus ATCC 204305) was 16 µg/mL.

“(5S,6R,16R,17R)-5-amino-6-hydroxy-16,17-epxoy-16,17-dihydropolyangioic acid [V-c]” was tested, and the “MIC0 A. flavus ATCC 204304” value (A. flavus ATCC 204304) was 16 µg/mL and the “MIC0 A. fumigatus ATCC 204305” value (A. fumigatus ATCC 204305) was 8 µg/mL.

For `CC[C@H]1O[C@@H](/C(C)=C/[C@H](C)/C=C/[C@H]2[C@@H](C)[C@@H]2/C=C/[C@@H]2O[C@H](CC(=O)O)C[C@H](N(C)Cc3nccs3)[C@H]2O)CC=C1C` [I-x, (5S,6R)-5-(N-(2-thiazolyl)methyl-methylamino)-6-hydroxypolyangioic acid], the “MIC0 A. flavus ATCC 204304” value (A. flavus ATCC 204304) was 4 µg/mL and the “MIC0 A. fumigatus ATCC 204305” value (A. fumigatus ATCC 204305) was 2 µg/mL.

`CC[C@H]1O[C@@H](/C(C)=C/[C@H](C)/C=C/[C@H]2[C@@H](C)[C@@H]2/C=C/[C@@H]2O[C@H](CC(=O)O)C[C@H](NCCO)[C@H]2O)CC=C1C` [I-ll, (5S,6R)-5-[(2-hydroxyethyl)amino]-6-hydroxypolyangioic acid] was tested, and the “MIC0 A. flavus ATCC 204304” value (A. flavus ATCC 204304) was 10 µg/mL, the “MIC0 A. fumigatus ATCC 204305” value (A. fumigatus ATCC 204305) was 10 µg/mL and the “MIC C. neoformans 97-14” value (Cryptococcus neoformans) was 0.5 µg/mL (≈ 0.966 µM). The “MIC C. neoformans 11239” value (Cryptococcus neoformans) was 1 µg/mL (≈ 1.93 µM) and the “MIC C. neoformans 11240” value (Cryptococcus neoformans) was 0.5 µg/mL (≈ 0.966 µM).

For `CC[C@H]1O[C@@H](/C(C)=C/[C@H](C)/C=C/[C@H]2[C@@H](C)[C@@H]2/C=C/[C@@H]2O[C@H](CC(=O)O)C[C@H](N(C)CC3CC3)[C@H]2O)CC=C1C` [I-b, (5S,6R)-5-(N-cyclopropylmethyl-methylamino)-6-hydroxypolyangioic acid], the “MIC0 A. flavus ATCC 204304” value (A. flavus ATCC 204304) was 1.5 µg/mL, the “MIC0 A. fumigatus ATCC 204305” value (A. fumigatus ATCC 204305) was 1.5 µg/mL and the “MIC C. neoformans 97-14” value (Cryptococcus neoformans) was 2 µg/mL (≈ 3.69 µM). For the same compound, the “MIC C. neoformans 11239” value (Cryptococcus neoformans) was 2 µg/mL (≈ 3.69 µM) and the “MIC C. neoformans 11240” value (Cryptococcus neoformans) was 2 µg/mL (≈ 3.69 µM).

In the case of `CC[C@H]1O[C@@H](/C(C)=C/[C@H](C)/C=C/[C@H]2[C@@H](C)[C@@H]2/C=C/[C@@H]2O[C@H](CC(=O)O)C[C@H](NC(C)=O)[C@H]2O)CC=C1C` [I-j, (5S,6R)-5-acetamido-6-hydroxypolyangioic acid], the “MIC0 A. flavus ATCC 204304” value (A. flavus ATCC 204304) is reported as >32 µg/mL and the “MIC0 A. fumigatus ATCC 204305” value (A. fumigatus ATCC 204305) is reported as 32 µg/mL.

`CC[C@H]1O[C@@H](/C(C)=C/[C@H](C)/C=C/[C@H]2[C@@H](C)[C@@H]2/C=C/[C@@H]2O[C@H](CCO)C[C@H](N(C)CCO)[C@H]2O)CC=C1C` [I-nn, (5S,6R)-5-[N-(2-hydroxyethyl)methylamino]polyangi-1,6-diol] was tested, and the “MIC0 A. flavus ATCC 204304” value (A. flavus ATCC 204304) was 4 µg/mL, the “MIC0 A. fumigatus ATCC 204305” value (A. fumigatus ATCC 204305) was 32 µg/mL and the “MIC B. dermatitidis Gu” value (Blastomyces dermatitidis) was >12.5 µg/mL. For the same compound, the “MIC B. dermatitidis Kr” value (Blastomyces dermatitidis) was >12.5 µg/mL, the “MIC B. dermatitidis V” value (Blastomyces dermatitidis) was >12.5 µg/mL and the “MIC H. capsulatum G217B” value (Histoplasma capsulatum) was <0.19 µg/mL. The “MIC H. capsulatum GS20” value (Histoplasma capsulatum) was <0.19 µg/mL.
